Measurements: patent US20200038513A1, “MODULATORS OF FAK PROTEOLYSIS AND ASSOCIATED METHODS OF USE” (ARVINAS OPERATIONS, INC., priority 2018, published 2020)

Legend:
[1] = tested on: p-Fak(Y397); assay: Fak activation, western blot in PC3 cells; assay type: cell-based, human; conditions: serum deprived PC3 cells, 24 h
Experimental: If not indicated otherwise, cells were seeded and grown to 80% confluency and were treated with compound or control for 24 hours. Subsequently, the growth media was removed and the cells lysed by the addition of lysis buffer (25 mM Tris, pH 7.4; 1% NP-40, 0.25% deoxycholate, 1 mM sodium vanadate, 10 mM sodium fluoride, 10 mM sodium pyrophosphate, 20 mM β-glycerophosphate and 1× complete EDTA-free protease inhibitor cocktail (Roche)). After 20 minutes the mixture was spun down at 16,000×g for 10 minutes at 4° C. to pellet insoluble materials. Protein concentration of supernatants were determined via BCA assay (Thermo Fisher) before addition of NuPAGE sample buffer containing 5% β-Me and boiling at 95° C. for 10 minutes. Equal amounts of protein were subjected to SDS-PAGE and subsequent electrophoretic transfer onto nitrocellulose membrane. Rabbit antibodies were purchased from Cell Signaling: Fak (3285), p-Fak (3283), p-Paxillin (2541), p-Akt (S473)(4060), GAPDH (2118), Androgen Receptor (5153), p-Src(Y527)(2105), p-S6RP (2215). Mouse antibodies were purchased from Cell Signaling: tubulin (3873), S6RP (2317). Secondary antibody ∝-rabbit (31460) or ∝-mouse (31444) was coupled to horseradish peroxidase and purchased from Thermo Fisher. Immunoblots were developed using enhanced chemiluminescence and visualized using a Bio-Rad Chemi-Doc MP Imaging System and quantitated with Image Lab v.5.2.1 software (Bio-Rad Laboratories). Data analysis and statistics was performed using Prism 7.0 (GraphPad).
Fak levels are undetectable at concentrations of 100 nM through 1 μM of exemplary compound 102, and slightly rebound at concentrations of 5 μM (10%) and 10 μM (27%) due to an observed hook effect. […] Paxillin, a downstream target of the Fak-Src complex, has been associated with cell migration. […] Akt is a kinase that is tied to the Fak signaling cascade via PI3K, but can be activated through other pathways as well. […] A maximum p-Akt suppression of 93% is observed at 1 μM of exemplary compound 102. […]

[2] = tested on: MDA-MB-231 cells; assay: Transwell invasion assay; assay type: cell-based, human; conditions: 100 nM, 24 hours
Experimental: On the first day, 0.2× Basement Membrane Extract (BME) working solution was prepared by diluting 5×BME stock solution in 1× Travigen Inc. coating buffer. Briefly, 100 μL of 10× coating buffer was diluted in 900 μL of sterile water to make 1× coating buffer. Then 960 μL of 1× coating buffer was mixed with 40 μL of 5×BME to make working 0.2×BME solution. Corning Transwell permeable inserts (Costar Transwell chambers, Corning) were placed on a 24-well plate and 100 μL of 0.2×BME solution was added to each Transwell insert and incubated for 16 hours. Following day, MDA-MB-231 cells were trypsinized and cells were suspended in serum free medium. Approximately 100 μL from cell suspension (˜3×10^5 cells) was added to each Transwell insert followed by another 100 μL of exemplary compound or control containing serum free RPMI medium. The lower chamber was filled with 10% FBS containing RPMI medium and the whole setup was incubated at 37° C. 1-5% CO2 for 24 hours. After 24 hours, cell culture medium was removed from both lower and upper chambers and Transwell inserts were washed three times with PBS. […] Images were then analyzed by ImageJ software and number of cells on the bottom side of the membrane were counted and presented as a bar graph using Prism 7.0 (GraphPad). Differences among groups were analyzed by Welch's t-test and considered significant when P<0.05. […]

[3] = target: Fak (Homo sapiens, UniProt Q05397); assay: Fak degradation, immunoblotting in PC3 cells; assay type: cell-based; conditions: 24 hour treatment; for Dmax: PC-3, degradation maximum, n = 3
Fak, sequence (Q05397 whole entry): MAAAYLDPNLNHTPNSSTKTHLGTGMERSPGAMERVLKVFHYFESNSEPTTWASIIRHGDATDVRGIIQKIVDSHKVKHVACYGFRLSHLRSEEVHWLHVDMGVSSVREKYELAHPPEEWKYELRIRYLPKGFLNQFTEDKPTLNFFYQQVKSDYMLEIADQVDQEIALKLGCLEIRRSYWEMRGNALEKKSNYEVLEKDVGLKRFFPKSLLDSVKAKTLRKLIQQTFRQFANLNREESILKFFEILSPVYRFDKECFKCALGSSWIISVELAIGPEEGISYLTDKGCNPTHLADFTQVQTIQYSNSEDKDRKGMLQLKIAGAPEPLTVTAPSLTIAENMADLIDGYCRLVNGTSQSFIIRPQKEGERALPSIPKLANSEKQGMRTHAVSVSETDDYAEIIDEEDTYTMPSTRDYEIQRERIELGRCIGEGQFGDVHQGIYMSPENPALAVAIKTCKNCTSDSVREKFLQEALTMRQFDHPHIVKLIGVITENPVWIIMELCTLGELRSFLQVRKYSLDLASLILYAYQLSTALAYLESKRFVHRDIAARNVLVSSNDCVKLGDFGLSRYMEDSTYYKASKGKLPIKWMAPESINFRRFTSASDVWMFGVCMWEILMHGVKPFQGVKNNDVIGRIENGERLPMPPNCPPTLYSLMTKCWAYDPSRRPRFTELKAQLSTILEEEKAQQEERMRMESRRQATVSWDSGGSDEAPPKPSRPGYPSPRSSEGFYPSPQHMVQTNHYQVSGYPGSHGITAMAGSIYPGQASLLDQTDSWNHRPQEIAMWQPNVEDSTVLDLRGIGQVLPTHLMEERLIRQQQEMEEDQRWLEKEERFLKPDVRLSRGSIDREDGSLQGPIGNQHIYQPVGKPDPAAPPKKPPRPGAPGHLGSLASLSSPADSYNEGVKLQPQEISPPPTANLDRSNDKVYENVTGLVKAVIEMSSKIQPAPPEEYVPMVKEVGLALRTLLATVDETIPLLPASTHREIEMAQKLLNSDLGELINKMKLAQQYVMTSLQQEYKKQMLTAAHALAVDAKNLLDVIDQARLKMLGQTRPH
Experimental: PC3 cells were cultured in F12-K (Kaighn's Modification of Ham's F-12 Medium), supplemented with 10% fetal bovine serum (FBS) and 1% penicillin-streptomycin at 37° C. and 5% CO2.
If not indicated otherwise, cells were seeded and grown to 80% confluency and were treated with compound or control for 24 hours. […] After 20 minutes the mixture was spun down at 16,000×g for 10 minutes at 4° C. to pellet insoluble materials. Protein concentration of supernatants were determined via BCA assay (Thermo Fisher) before addition of NuPAGE sample buffer containing 5% β-Me and boiling at 95° C. for 10 minutes. Equal amounts of protein were subjected to SDS-PAGE and subsequent electrophoretic transfer onto nitrocellulose membrane. […] Immunoblots were developed using enhanced chemiluminescence and visualized using a Bio-Rad Chemi-Doc MP Imaging System and quantitated with Image Lab v.5.2.1 software (Bio-Rad Laboratories). Data analysis and statistics was performed using Prism 7.0 (GraphPad).
Examination of Target Protein (Fak) Degradation.

SMILES | p-Fak levels ([1]; between 100 nM and 5 μM) | Fak activation (p-Fak(Y397)) compared to DMSO (in words) ([1]; increasing concentrations) | reduction of cell invasion [2] | Dmax ([3]; PC3 cells) | DC50 ([3]; half-maximal degradation concentration, PC3 cells) | total Fak remaining ([3]; serum deprived PC3 cells, 10 nM) | total Fak remaining ([3]; serum deprived PC3 cells, 50 nM) | Fak levels ([3]; serum deprived PC3 cells, 100 nM through 1 μM) | Fak levels (rebound, hook effect) ([3]; serum deprived PC3 cells, 5 μM) | Fak levels (rebound, hook effect) ([3]; serum deprived PC3 cells, 10 μM) | lowest level of p-Fak activity (remaining) ([1]; 10 μM) | effect on cell invasion (in words) [2]
Cc1ncsc1-c1ccc(CNC(=O)[C@@H]2C[C@@H](O)CN2C(=O)[C@@H](NC(=O)CCOCCOc2ccc(Nc3ncc(C(F)(F)F)c(NCc4cccc(N(C)S(C)(=O)=O)c4)n3)cc2)C(C)(C)C)cc1 [Compound 102, (2S,4R)-1-((S)-3,3-dimethyl-2-(3-(2-(4-((4-((3-(N-methylmethylsulfonamido)benzyl)amino)-5-(trifluoromethyl)pyrimidin-2-yl)amino)phenoxy)ethoxy)propanamido)butanoyl)-4-hydroxy-N-(4-(4-methylthiazol-5-yl)benzyl)pyrrolidine-2-carboxamide] | less than 5% | significantly reduced | 65% | 99% | 3.3 nM | 34% | 5% | undetectable | 10% | 27% | – | –
CNC(=O)c1ccc(Nc2ncc(C(F)(F)F)c(NCc3nccnc3N(C)S(C)(=O)=O)n2)cc1 [Defactinib, defactinib, reference compound] | – | – | – | 0% | – | – | – | – | – | – | 26% | no significant effect
